Results as given in patent US3965109A, “Certain aryl amino pyridines” (priority 1971, dated 1976).

Tests used:
Wild oat = test: Selective herbicidal activity; format: in vivo, Avenua fatua; settings: 28 days, scale 0 to 10 (complete kill)
Text: (§1) This Example illustrates the selective herbicidal activity of compounds No. 5 and 12 of Table 1. The compounds, formulated as in Example 5 were sprayed on to pots of soil previously sown with seeds of the plant species shown in Tables 13 and 14.

Tomato = test: Herbicidal test, pre- and post-emergence; format: in vivo; settings: 10 lb/acre (11.2 kg/ha); scale 0 (no effect) to 3 (complete kill)
[1] = system: Phaedon cochleariae (mustard beetles); test: Pest toxicity test; format: in vivo; settings: 0.1% by weight; mustard/paper; 2 days
[2] = system: Puccinia recondita (wheat); test: Fungicidal test against foliar disease A (foliage spray plus soil drench); format: in vivo; settings: 100 ppm spray and drench; 10 days
Kale = test: Further herbicidal test, various rates; format: in vivo; settings: scale 0 to 5 (complete kill)
[3] = system: Plasmopara viticola (vine); test: Fungicidal test against foliar disease C (foliage spray plus soil drench); format: in vivo; settings: 100 ppm spray and drench; 10 days
[4] = system: Plutella maculipennis (diamond back moth larvae); test: Pest toxicity test; format: in vivo; settings: 0.1% by weight; mustard/paper; 2 days
Carrot = test: Further herbicidal test, various rates; format: in vivo; settings: scale 0 to 5 (complete kill)
Barley [5] = test: Selective herbicidal activity; format: in vivo; settings: for Damage to plants: 28 days, scale 0 to 10 (complete kill)
Text: as §1
(§2) Table 14 gives the results for compound No. 12 of Table 1 The figures are assessments of damage to the plants 23 days after treatment, on a scale of 0 to 5 where 0 is no effect and 5 is complete kill

broadleaved plants = test: Selective herbicidal activity; format: in vivo; settings: Tables 13 and 14
Text: as §1, §2

Wheat [6] = test: Selective herbicidal activity; format: in vivo; settings: for Damage to plants: 28 days, scale 0 to 10 (complete kill)
Text: as §1, §2

Groundsel = test: Selective herbicidal activity; format: in vivo, Senecio vulgaris; settings: 28 days, scale 0 to 10 (complete kill)
Text: as §1
Groundsel Senecio vulgaris

Pea = test: Further herbicidal test, various rates; format: in vivo; settings: scale 0 to 5 (complete kill)
[7] = system: Pieris brassicae (cabbage white caterpillars); test: Pest toxicity test; format: in vivo; settings: 0.1% by weight, 2 days
Annual Nettle = test: Selective herbicidal activity; format: in vivo, Urtica urens; settings: 28 days, scale 0 to 10 (complete kill)
Text: as §1
Annual Nettle Urtica urens

[8] = system: Musca domestica (houseflies); test: Pest toxicity test, contact test; format: in vivo; settings: 0.1% by weight; milk/sugar; 2 days; flies sprayed directly
White mustard = test: Selective herbicidal activity; format: in vivo, Sinapis alba; settings: 28 days, scale 0 to 10 (complete kill)
Text: as §1
White mustard Sinapis alba

[9] = system: Aedes aegypti (mosquito larvae); test: Pest toxicity test; format: in vivo
[10] = system: Tetranychus telarius (red spider mites, eggs); test: Pest toxicity test; format: in vivo; settings: 0.1% by weight; French bean; 3 days
[11] = system: Venturia inaequalis (apple); test: Fungicidal test against foliar disease G (foliage spray plus soil drench); format: in vivo; settings: 100 ppm spray and drench; 21 days
Experimental: This Example illustrates the fungicidal properties of compounds used as active ingredients in the compositions of the invention. The compounds were tested against a wide variety of foliar fungal diseases of plants. In the test, a composition comprising an aqueous solution or suspension of the test compound was sprayed on to the foliage or uninfected plants; the soil in which the plants were growing was also drenched with the composition. The compositions used for spraying and drencing contained 100 parts per million (ppm.) of the test compound except where otherwise stated in the table of results below. After spraying and drenching, the plants were then exposed to infection with the diseases it was desired to control, along with control plants not treated with the compound. After a period of days, depending upon the particular disease, the extent of the disease was visually assessed, as a percentage of the disease established upon the control plants which had not been treated with the compound under test, according to the grading scheme below
In Table 2 below the names of the disease is given in the first column, and in the second column is given the time which elapsed between exposing the plants to infection and assessing the amount of disease.

Oat = test: Further herbicidal test, various rates; format: in vivo; settings: scale 0 to 5 (complete kill)
Onion = test: Further herbicidal test, various rates; format: in vivo; settings: scale 0 to 5 (complete kill)
Chickweed = test: Selective herbicidal activity; format: in vivo, Stellaria media; settings: 28 days, scale 0 to 10 (complete kill)
Text: as §1
Chickweed Stellaria media

[12] = system: Aedes aegypti (mosquito adults); test: Pest toxicity test; format: in vivo; settings: 0.01% by weight; plywood; 1 day
[13] = system: Tetranychus telarius (red spider mites, adults); test: Pest toxicity test; format: in vivo; settings: 0.1% by weight; French bean; 3 days
Uncinula necator (vine) = test: Fungicidal test against foliar disease D (foliage spray plus soil drench); format: in vivo; settings: 100 ppm spray and drench; 10 days
[14] = system: Piricularia oryzae (rice); format: in vivo; settings: 100 ppm spray and drench; 7 days
Sugar beet = test: Further herbicidal test, various rates; format: in vivo; settings: scale 0 to 5 (complete kill)
Maize = test: Herbicidal test, pre- and post-emergence; format: in vivo; settings: 10 lb/acre (11.2 kg/ha); scale 0 (no effect) to 3 (complete kill)
Rice = test: Further herbicidal test, various rates; format: in vivo; settings: scale 0 to 5 (complete kill)
Mayweed = test: Selective herbicidal activity; format: in vivo, Tripleurospermum maritimum ssp. inodorum; settings: 28 days, scale 0 to 10 (complete kill)
Text: as §1
Mayweed Tripleurospermum maritimum

Lettuce = test: Herbicidal test, pre- and post-emergence; format: in vivo; settings: 10 lb/acre (11.2 kg/ha); scale 0 (no effect) to 3 (complete kill)
Aphis fabae = test: Pest toxicity test; format: in vivo; settings: 0.1% by weight; broad bean; 2 days
Wheat [15] = test: Herbicidal test, pre- and post-emergence; format: in vivo; settings: 10 lb/acre (11.2 kg/ha); scale 0 (no effect) to 3 (complete kill)
Megoura viceae = test: Pest toxicity test; format: in vivo; settings: 0.1% by weight; broad bean; 2 days
Redshank = test: Selective herbicidal activity; format: in vivo, Polygonum persicaria; settings: 28 days, scale 0 to 10 (complete kill)
Text: as §1
Redshank Polygonum persicaria

Barley [16] = test: Further herbicidal test, various rates; format: in vivo; settings: scale 0 to 5 (complete kill)
Speedwell = test: Selective herbicidal activity; format: in vivo, Veronica spp; settings: 28 days, scale 0 to 10 (complete kill)
Text: as §1

O=[N+]([O-])c1ccc(Nc2c(Cl)c(F)nc(F)c2Cl)c(C(F)(F)F)c1 [Compound 5]
caused damage to the broadleaved plants: damage to the broadleaved plants (in words) (broadleaved plants)
1 (1 represents 30 - 49% kill): Mortality grading (kill) [4]
2: Damage to plants, pre-emergence (Carrot; 1 lb/acre) | Damage to plants, pre-emergence (Oat; 1 lb/acre) | Damage to plants, pre-emergence (Wheat [15])
3: Damage to plants, post-emergence (Tomato) | Damage to plants, pre-emergence (Tomato) | Damage to plants, pre-emergence (Pea; 5 lb/acre) | Damage to plants, post-emergence (Oat; 1 lb/acre) | Damage to plants, post-emergence (Onion; 1 lb/acre) | Damage to plants, pre-emergence (Rice; 1 lb/acre) | Damage to plants, post-emergence (Lettuce) | Damage to plants, pre-emergence (Lettuce) | Damage to plants, post-emergence (Barley [16]; 1 lb/acre) | Damage to plants, post-emergence (Barley [16]; 5 lb/acre)
5: Damage to plants, post-emergence (Kale; 1 lb/acre) | Damage to plants, post-emergence (Kale; 5 lb/acre) | Damage to plants, pre-emergence (Kale; 5 lb/acre) | Damage to plants, post-emergence (Carrot; 1 lb/acre) | Damage to plants, post-emergence (Carrot; 5 lb/acre) | Damage to plants, pre-emergence (Carrot; 5 lb/acre) | Damage to plants, pre-emergence (Oat; 5 lb/acre) | Damage to plants, post-emergence (Onion; 5 lb/acre) | Damage to plants, pre-emergence (Onion; 5 lb/acre) | Damage to plants, post-emergence (Sugar beet; 1 lb/acre) | Damage to plants, post-emergence (Sugar beet; 5 lb/acre) | Damage to plants, pre-emergence (Sugar beet; 5 lb/acre) | Damage to plants, pre-emergence (Rice; 5 lb/acre) | Damage to plants (Redshank; 0.5 kg/hectare) | Damage to plants, pre-emergence (Barley [16]; 1 lb/acre) | Damage to plants, pre-emergence (Barley [16]; 5 lb/acre)
abnormal growth effects: abnormal growth effects in larva of mosquitos ([9]; in vivo)
0: Damage to plants (Wild oat; 0.5 kg/hectare) | Damage to plants, pre-emergence (Kale; 1 lb/acre) | Damage to plants (Barley [5]; 0.5 kg/hectare) | Damage to plants (Barley [5]; 4 kg/hectare) | Damage to plants (Wheat [6]; 0.5 kg/hectare) | Damage to plants (Wheat [6]; 4 kg/hectare) | Damage to plants, pre-emergence (Pea; 1 lb/acre) | Damage to plants (White mustard; 0.5 kg/hectare) | Damage to plants, pre-emergence (Onion; 1 lb/acre) | Damage to plants, pre-emergence (Sugar beet; 1 lb/acre) | Damage to plants, post-emergence (Maize) | Damage to plants, pre-emergence (Maize) | Damage to plants, post-emergence (Rice; 1 lb/acre) | Damage to plants, post-emergence (Rice; 5 lb/acre) | Damage to plants, post-emergence (Wheat [15])
4: Damage to plants (Groundsel; 0.5 kg/hectare) | Damage to plants, post-emergence (Pea; 1 lb/acre) | Damage to plants, post-emergence (Pea; 5 lb/acre) | Damage to plants, post-emergence (Oat; 5 lb/acre)
8.5: Damage to plants (White mustard; 4 kg/hectare)
8: Damage to plants (Chickweed; 0.5 kg/hectare)
undamaged: damage to barley (in words) (Barley [5]; Tables 13 and 14) | damage to wheat (in words) (Wheat [6]; Tables 13 and 14)
6: Damage to plants (Mayweed; 0.5 kg/hectare)
3 (0 to 5): Amount of disease grading, disease A [2] | Amount of disease grading, disease C [3] | Amount of disease grading, disease G [11] | Amount of disease grading, disease D (Uncinula necator (vine))
0 (61 to 100): Amount of disease grading, disease E [14]
5.5: Damage to plants (Wild oat; 4 kg/hectare)
10: Damage to plants (Groundsel; 4 kg/hectare) | Damage to plants (Annual Nettle; 0.5 kg/hectare) | Damage to plants (Annual Nettle; 4 kg/hectare) | Damage to plants (Chickweed; 4 kg/hectare) | Damage to plants (Mayweed; 4 kg/hectare) | Damage to plants (Redshank; 4 kg/hectare) | Damage to plants (Speedwell; 0.5 kg/hectare) | Damage to plants (Speedwell; 4 kg/hectare)
3 (3 represents over 90% kill): Mortality grading (kill) [7] | Mortality grading (kill) [10] | Mortality grading (kill) [13] | Mortality grading (kill) (Aphis fabae) | Mortality grading (kill) (Megoura viceae)
0 (O represents less than 30% kill): Mortality grading (kill) [1] | Mortality grading (kill), contact test [8] | Mortality grading (kill) ([9]; 0.01% by weight, water, 1 day) | Mortality grading (kill) [12]
